This test relates to Puccinia recondita. Description: Curative activity against Puccinia recondita on wheat (wheat leaf rust). The format is in vivo, Puccinia recondita on wheat seedlings of the variety Kanzler. Conditions: sprayed 1 day after inoculation, rated after 7 days. How it is done:
The active ingredients, separately or together, are formulated as a 10% emulsion in a mixture of 63% by weight of cyclohexanone and 27% by weight of emulsifier, and diluted with water to the desired concentration.
Evaluation is carried out by determining the infected leaf areas in percent. These percentages are converted into efficacies. The efficacy (w) is calculated as follows using Abbot's formula: […]
α corresponds to the fungal infection of the treated plants in % and β corresponds to the fungal infection of the untreated (control) plants in % An efficacy of 0 means that the infection level of the treated plants corresponds to that of the untreated control plants; an efficacy of 100 means that the treated plants were not infected.
The expected efficacies of the mixtures of the active ingredients were determined using Colby's formula [R. S. Colby, Weeds 15, 20-22 (1967)] and compared with the observed efficacies.
Colby's formula: E=x+y−x·y/100
E expected efficacy, expressed in % of the untreated control, when using the mixture of the active ingredients A and B at the concentrations a and b x efficacy, expressed in % of the untreated control, when using active ingredient A at a concentration of a y efficacy, expressed in % of the untreated control, when using active ingredient B at a concentration of b Leaves of potted wheat seedlings of the variety “Kanzler” were dusted with spores of leaf rust (Puccinia recondite). Thereafter, the pots were kept for 24 hours in a chamber of high atmospheric humidity (90 to 95%) and 20 to 22° C. During this time, the spores germinated and the germinal tubes penetrated into the leaf tissue. The next day, the infected plants were sprayed to runoff point with an aqeuous formulation of active ingredient prepared from a stock solution consisting of 10% of active ingredient, 63% of cyclohexanone and 27% of emulsifier. After the spray coating had dried on, the test plants were cultivated in a greenhouse at from 20 to 22° C. and from 65 to 70% of relative atmospheric humidity for 7 days. Thereafter, the extent of rust fungus development on the leaves was determined.

Where [1] appears, read: 50 ppm active ingredient in the spray liquor.
The mark [2] stands for this setting: 100 ppm active ingredient in the spray liquor.

On to `OC(c1ccc(Cl)cc1)(c1cncnc1)c1ccccc1Cl` (racemic) [Compound II, (±)-(2-Chlorophenyl)(4-chlorophenyl)(pyrimidin-5-yl)methanol, reference compound], for which the “Efficacy in % of the untreated control” value is, setting by setting: (10 ppm active ingredient in the spray liquor) 10%; (20 ppm active ingredient in the spray liquor) 20%.

As for `O=C(Nc1ccccc1-c1ccc(F)cc1)c1cccnc1Cl` [Compound I.1], the “Efficacy in % of the untreated control” value is, setting by setting: under setting [1], 0%; under setting [2], 0%; (200 ppm active ingredient in the spray liquor) 0%.

For the compound `O=C(Nc1ccccc1-c1ccc(Cl)cc1)c1cccnc1Cl` [Compound I.2], the “Efficacy in % of the untreated control” value reads like this: under setting [1], 0%; under setting [2], 30%.

Values taken from patent US6372748B1, “Fungicide mixtures based on pyridine amides and fenarimol” (BASF Aktiengesellschaft, priority 1997, dated 2002).
